Assay results as given in US20230183193A1, “4-DIFLUOROMETHYL BENZOYL AMIDES WITH HERBICIDAL ACTION” (BAYER CROPSCIENCE AKTIENGESELLSCHAFT, priority 2017, published 2023).

Assays:
[1] = system: Abutilon theophrasti; test: Pre-emergence herbicidal action, ABUTH; assay type: in vivo; details: for Herbicidal efficacy against ABUTH: Table K; for herbicidal activity ABUTH: scored visually after 3 weeks vs untreated controls
How it was run: (§1)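 Percent herbicidal activity rated by eye 3 weeks after pre-emergence soil-surface application, compared with untreated pots. Seeds sat under sandy loam; sprays carried 0.2% wetting agent.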

[2] = system: Alopecurus myosuroides; test: Pre-emergence herbicidal action, ALOMY; assay type: in vivo; details: for herbicidal activity ALOMY: dosage 320 g/ha, scored visually after 3 weeks vs untreated controls
How it was run: as §1

[3] = system: Amaranthus retroflexus; test: Pre-emergence herbicidal action, AMARE; assay type: in vivo; details: dosage 320 g/ha, scored visually after 3 weeks vs untreated controls
How it was run: as §1

[4] = system: Avena fatua; test: Pre-emergence herbicidal action, AVEFA; assay type: in vivo; details: for herbicidal activity AVEFA: dosage 320 g/ha, scored visually after 3 weeks vs untreated controls
How it was run: as §1

[5] = system: Cyperus serotinus; test: Pre-emergence herbicidal action, CYPES; assay type: in vivo; details: for herbicidal activity CYPES: dosage 320 g/ha, scored visually after 3 weeks vs untreated controls
How it was run: as §1

[6] = system: Matricaria inodora; test: Pre-emergence herbicidal action, MATIN; assay type: in vivo; details: for Herbicidal efficacy against MATIN: Table K; for herbicidal activity MATIN: scored visually after 3 weeks vs untreated controls
How it was run: as §1

[7] = system: Polygonum convolvulus; test: Pre-emergence herbicidal action, POLCO; assay type: in vivo; details: Table K
Source text: 1. Pre-Emergence Herbicidal Action Against Harmful Plants Seeds of monocotyledonous and dicotyledonous weed plants and crop plants are laid out in sandy loam soil in wood-fiber pots and covered with soil. The compounds of the invention, formulated in the form of wettable powders (WP) or as emulsion concentrates (EC), are then applied to the surface of the covering soil in the form of an aqueous suspension or emulsion at a water application rate equating to […], with addition of 0.2% wetting agent. After the treatment, the pots are placed in a greenhouse and kept under good growth conditions for the trial plants. The damage to the test plants is scored visually after a test period of 3 weeks by comparison with untreated controls (herbicidal activity in percent (%): 100% activity=the plants have died, 0% activity=like control plants).
For comparison, the herbicidal activity of numerous compounds according to the invention was tested with the structurally closest compounds known from the documents WO 2011/035874, WO 2012/028579 and WO 2012/126932, by the pre- and post-emergence method.

[8] = system: Setaria viridis; test: Pre-emergence herbicidal action, SETVI; assay type: in vivo; details: for herbicidal activity SETVI: dosage 320 g/ha, scored visually after 3 weeks vs untreated controls
How it was run: as §1

[9] = system: Stellaria media; test: Pre-emergence herbicidal action, STEME; assay type: in vivo; details: dosage 320 g/ha, scored visually after 3 weeks vs untreated controls
How it was run: as §1

[10] = system: Viola tricolor; test: Pre-emergence herbicidal action, VIOTR; assay type: in vivo; details: for Herbicidal efficacy against VIOTR: Table K; for herbicidal activity VIOTR: scored visually after 3 weeks vs untreated controls
How it was run: as §1

[11] = system: Abutilon theophrasti; test: Post-emergence herbicidal action, ABUTH; assay type: in vivo; details: 80 g/ha, Table D
How it was run: (§2)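 Greenhouse-grown plants were sprayed at the one-leaf stage, 2–3 weeks after sowing. Damage was scored visually after about 3 weeks against untreated controls, as % action (100% = dead, 0% = like control).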

[12] = system: Alopecurus myosuroides; test: Post-emergence herbicidal action, ALOMY; assay type: in vivo; details: for herbicidal activity ALOMY: Table C
How it was run: as §2

[13] = system: Amaranthus retroflexus; test: Post-emergence herbicidal action, AMARE; assay type: in vivo; details: 80 g/ha, Table D
How it was run: as §2

[14] = system: Avena fatua; test: Post-emergence herbicidal action, AVEFA; assay type: in vivo; details: for herbicidal activity AVEFA: Table C
How it was run: as §2

[15] = system: Pharbitis purpureum; test: Post-emergence herbicidal action, PHBPU; assay type: in vivo; details: 80 g/ha, Table D
How it was run: as §2

[16] = system: Setaria viridis; test: Post-emergence herbicidal action, SETVI; assay type: in vivo; details: for herbicidal activity SETVI: Table C
How it was run: as §2

[17] = system: Stellaria media; test: Post-emergence herbicidal action, STEME; assay type: in vivo; details: for Herbicidal activity STEME: Table D
How it was run: as §2

[18] = system: Viola tricolor; test: Post-emergence herbicidal action, VIOTR; assay type: in vivo; details: for herbicidal activity VIOTR: Table D
How it was run: as §2

[19] = system: ECHCG; test: Post-emergence herbicidal action, ECHCG; assay type: in vivo; details: 80 g/ha, Table C
How it was run: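 Weed and crop plants grown in sandy loam in the greenhouse, treated at the one-leaf stage 2–3 weeks after sowing. Damage scored visually after about 3 weeks vs untreated controls (0% = control, 100% = dead).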

[20] = system: ECHCG; test: Pre-emergence herbicidal action, ECHCG; assay type: in vivo, Echinochloa crus-galli

CSc1c(C(F)F)ccc(C(=O)Nc2nnnn2C)c1C [Example 1-1]
Herbicidal efficacy against ABUTH ([1]; dosage 20 g/ha): 90
Herbicidal efficacy against ABUTH ([1]; dosage 80 g/ha): 100
herbicidal activity ABUTH ([1]; dosage 320 g/ha): 100%
Herbicidal efficacy against ALOMY ([2]; 20 g/ha): 90
Herbicidal efficacy against ALOMY ([2]; 80 g/ha): 90
herbicidal activity ALOMY [2]: 100%
herbicidal activity AMARE [3]: 100%
Herbicidal efficacy against AVEFA ([4]; 80 g/ha): 90
herbicidal activity AVEFA [4]: 100%
Herbicidal efficacy against CYPES ([5]; 20 g/ha): 30
Herbicidal efficacy against CYPES ([5]; 80 g/ha): 70
herbicidal activity CYPES [5]: 80%
Herbicidal efficacy against MATIN ([6]; dosage 20 g/ha): 70
Herbicidal efficacy against MATIN ([6]; dosage 80 g/ha): 90
herbicidal activity MATIN ([6]; dosage 320 g/ha): 100%
Herbicidal efficacy against POLCO ([7]; dosage 20 g/ha): 60
Herbicidal efficacy against POLCO ([7]; dosage 80 g/ha): 70
Herbicidal efficacy against SETVI ([8]; 20 g/ha): 70
Herbicidal efficacy against SETVI ([8]; 80 g/ha): 100
herbicidal activity SETVI [8]: 100%
Herbicidal activity STEME [9]: 100%
Herbicidal efficacy against VIOTR ([10]; dosage 20 g/ha): 100
Herbicidal efficacy against VIOTR ([10]; dosage 80 g/ha): 100
herbicidal activity VIOTR ([10]; dosage 320 g/ha): 100%
herbicidal activity ABUTH [11]: 100%
Herbicidal efficacy against ALOMY ([12]; 5 g/ha): 60
Herbicidal efficacy against ALOMY ([12]; 20 g/ha): 90
Herbicidal efficacy against ALOMY ([12]; 80 g/ha): 90
herbicidal activity ALOMY ([12]; 80 g/ha): 90%
herbicidal activity AMARE [13]: 100%
Herbicidal efficacy against AVEFA ([14]; 5 g/ha): 40
Herbicidal efficacy against AVEFA ([14]; 20 g/ha): 90
Herbicidal efficacy against AVEFA ([14]; 80 g/ha): 100
herbicidal activity AVEFA ([14]; 80 g/ha): 100%
Herbicidal activity PHBPU [15]: 90%
Herbicidal efficacy against SETVI ([16]; 5 g/ha): 100
Herbicidal efficacy against SETVI ([16]; 20 g/ha): 100
Herbicidal efficacy against SETVI ([16]; 80 g/ha): 100
herbicidal activity SETVI ([16]; 80 g/ha): 100%
Herbicidal efficacy against STEME ([17]; 5 g/ha): 100
Herbicidal efficacy against STEME ([17]; 20 g/ha): 100
Herbicidal efficacy against STEME ([17]; 80 g/ha): 100
Herbicidal activity STEME ([17]; 80 g/ha): 100%
Herbicidal efficacy against VIOTR ([18]; 5 g/ha): 100
Herbicidal efficacy against VIOTR ([18]; 20 g/ha): 100
Herbicidal efficacy against VIOTR ([18]; 80 g/ha): 100
herbicidal activity VIOTR ([18]; 80 g/ha): 100%
Herbicidal activity ECHCG [19]: 100%
Herbicidal efficacy against ECHCG ([20]; 20 g/ha): 80
Herbicidal efficacy against ECHCG ([20]; 80 g/ha): 100

Cc1c(C(=O)Nc2nnnn2C)ccc(C(F)F)c1S(C)(=O)=O [Example 1-3]
Herbicidal efficacy against ABUTH ([1]; dosage 20 g/ha): 100
Herbicidal efficacy against ABUTH ([1]; dosage 80 g/ha): 100
Herbicidal efficacy against ABUTH ([1]; dosage 320 g/ha): 100
herbicidal activity ABUTH ([1]; dosage 320 g/ha): 100%
Herbicidal efficacy against ALOMY ([2]; 20 g/ha): 50
Herbicidal efficacy against ALOMY ([2]; 80 g/ha): 90
Herbicidal efficacy against ALOMY ([2]; 320 g/ha): 100
herbicidal activity ALOMY [2]: 100%
herbicidal activity AMARE [3]: 100%
Herbicidal efficacy against AVEFA ([4]; 20 g/ha): 80
Herbicidal efficacy against AVEFA ([4]; 80 g/ha): 100
Herbicidal efficacy against AVEFA ([4]; 320 g/ha): 100
herbicidal activity AVEFA [4]: 100%
Herbicidal efficacy against CYPES ([5]; 20 g/ha): 30
Herbicidal efficacy against CYPES ([5]; 80 g/ha): 90
Herbicidal efficacy against CYPES ([5]; 320 g/ha): 90
herbicidal activity CYPES [5]: 90%
Herbicidal efficacy against MATIN ([6]; dosage 20 g/ha): 80
Herbicidal efficacy against MATIN ([6]; dosage 80 g/ha): 100
Herbicidal efficacy against MATIN ([6]; dosage 320 g/ha): 100
herbicidal activity MATIN ([6]; dosage 320 g/ha): 100%
Herbicidal efficacy against POLCO ([7]; dosage 20 g/ha): 30
Herbicidal efficacy against POLCO ([7]; dosage 80 g/ha): 90
Herbicidal efficacy against POLCO ([7]; dosage 320 g/ha): 90
Herbicidal efficacy against SETVI ([8]; 20 g/ha): 70
Herbicidal efficacy against SETVI ([8]; 80 g/ha): 100
Herbicidal efficacy against SETVI ([8]; 320 g/ha): 100
herbicidal activity SETVI [8]: 100%
Herbicidal activity STEME [9]: 100%
Herbicidal efficacy against VIOTR ([10]; dosage 20 g/ha): 100
Herbicidal efficacy against VIOTR ([10]; dosage 80 g/ha): 100
Herbicidal efficacy against VIOTR ([10]; dosage 320 g/ha): 100
herbicidal activity VIOTR ([10]; dosage 320 g/ha): 100%
herbicidal activity ABUTH [11]: 80%
Herbicidal efficacy against ALOMY ([12]; 5 g/ha): 60
Herbicidal efficacy against ALOMY ([12]; 80 g/ha): 90
herbicidal activity ALOMY ([12]; 80 g/ha): 90%
Herbicidal efficacy against AVEFA ([14]; 5 g/ha): 70
Herbicidal efficacy against AVEFA ([14]; 80 g/ha): 100
herbicidal activity AVEFA ([14]; 80 g/ha): 100%
Herbicidal activity PHBPU [15]: 100%
Herbicidal efficacy against SETVI ([16]; 5 g/ha): 90
Herbicidal efficacy against SETVI ([16]; 80 g/ha): 90
herbicidal activity SETVI ([16]; 80 g/ha): 90%
Herbicidal efficacy against STEME ([17]; 5 g/ha): 90
Herbicidal efficacy against STEME ([17]; 80 g/ha): 100
Herbicidal activity STEME ([17]; 80 g/ha): 100%
Herbicidal efficacy against VIOTR ([18]; 5 g/ha): 100
Herbicidal efficacy against VIOTR ([18]; 80 g/ha): 100
herbicidal activity VIOTR ([18]; 80 g/ha): 100%
Herbicidal activity ECHCG [19]: 90%
Herbicidal efficacy against ECHCG ([20]; 20 g/ha): 90
Herbicidal efficacy against ECHCG ([20]; 80 g/ha): 100
Herbicidal efficacy against ECHCG ([20]; 320 g/ha): 100
